In ChEMBL document CHEMBL1629682, “Nitazoxanide inhibits biofilm formation by Staphylococcus epidermidis by blocking accumulation on surfaces” (Antimicrob Agents Chemother, 2010):
Converted amounts (≈) assume the structure as drawn. The source made the active and inactive calls. The rule behind the calls is not given here.

Legend:
[1] = test system: Staphylococcus epidermidis; assay: Antimicrobial activity against Staphylococcus epidermidis 5179 by microdilution method; format: functional
[2] = test system: Staphylococcus epidermidis; assay: Antimicrobial activity against Staphylococcus epidermidis CAV1005 under aerobic condition by microdilution method; format: functional, organism-based
[3] = test system: Staphylococcus epidermidis; assay: Antimicrobial activity against Staphylococcus epidermidis 9142 under aerobic condition by microdilution method; format: functional, organism-based
[4] = test system: Staphylococcus epidermidis; assay: Antimicrobial activity against Staphylococcus epidermidis 9142 by microdilution method; format: functional
[5] = Plasma protein binding in healthy volunteers at […], po administered as single dose; format: ADME, organism-based; parameters: route oral; conditions: human, read-out: PPB (converted)
[6] = test system: Staphylococcus epidermidis; assay: Antimicrobial activity against Staphylococcus epidermidis 5179 under aerobic condition by microdilution method; format: functional, organism-based
[7] = test system: Staphylococcus epidermidis; assay: Antimicrobial activity against Staphylococcus epidermidis 9142 at 1 to 5 ug/ml by microplate assay; format: functional, organism-based
[8] = test system: Staphylococcus epidermidis; assay: Antimicrobial activity against Staphylococcus epidermidis 9142 at 25 ug/ml under aerobic condition by microdilution method; format: functional, organism-based
[9] = test system: Staphylococcus epidermidis; assay: Antimicrobial activity against Staphylococcus epidermidis 5179 at 25 ug/ml under aerobic condition by microdilution method; format: functional, organism-based
[10] = test system: Staphylococcus epidermidis; assay: Antimicrobial activity against Staphylococcus epidermidis CAV1005 at 25 ug/ml under aerobic condition by microdilution method; format: functional, organism-based
[11] = test system: Staphylococcus epidermidis; assay: Antimicrobial activity against Staphylococcus epidermidis CAV1005 by microdilution method; format: functional
[12] = Aqueous solubility of the compound; format: physicochemical
[13] = test system: Staphylococcus haemolyticus; assay: Antimicrobial activity against Staphylococcus haemolyticus S33208 assessed as growth inhibition at 16 ug/ml by microdilution method; format: functional, organism-based
[14] = test system: Staphylococcus epidermidis; assay: Antimicrobial activity against Staphylococcus epidermidis 9142 expressing surface protein Aap assessed as inhibition of bacterial growth at 12.5 ug/ml by spectrophotometry in presence of 10 uM Zn ions; format: functional, organism-based
[15] = test system: Staphylococcus epidermidis; assay: Antimicrobial activity against Staphylococcus epidermidis 9142 at 25 ug/ml by microdilution method; format: functional, organism-based
[16] = test system: Staphylococcus haemolyticus; assay: Antimicrobial activity against Staphylococcus haemolyticus S33208 assessed as growth inhibition at 8 ug/ml by microdilution method; format: functional, organism-based
[17] = test system: Staphylococcus epidermidis; assay: Antimicrobial activity against biofilm-positive Staphylococcus epidermidis clinical isolate ICS1 assessed as inhibition of biofilm formation after 16 hrs by crystal violet staining; format: functional, organism-based
[18] = test system: Staphylococcus epidermidis; assay: Antimicrobial activity against Staphylococcus epidermidis CAV1005 under microaeration condition at 10 ug/ml by microdilution method; format: functional, organism-based
[19] = test system: Staphylococcus epidermidis; assay: Antimicrobial activity against Staphylococcus epidermidis 5179 under microaeration condition at 10 ug/ml by microdilution method; format: functional, organism-based
[20] = test system: Staphylococcus epidermidis; assay: Antimicrobial activity against Staphylococcus epidermidis 9142 expressing surface protein Aap assessed as inhibition of biofilm formation at 12.5 ug/ml by spectrophotometry in presence of calcium ions; format: functional, organism-based
[21] = test system: Staphylococcus epidermidis; assay: Antimicrobial activity against biofilm-positive Staphylococcus epidermidis clinical isolate ICS5 by microdilution method; format: functional, organism-based
[22] = test system: Staphylococcus epidermidis; assay: Antimicrobial activity against Staphylococcus epidermidis 9142 assessed as inhibition of bacterial accumulation on catheters after 24 hrs by catheter adherence model; format: functional, organism-based
[23] = test system: Staphylococcus epidermidis; assay: Antimicrobial activity against biofilm-positive Staphylococcus epidermidis clinical isolate ICS1 by microdilution method; format: functional, organism-based
[24] = test system: Staphylococcus epidermidis; assay: Antimicrobial activity against Staphylococcus epidermidis 9142 assessed as inhibition of bacterial accumulation on catheters treated for 12 hrs post biofilm formation measured after 24 hrs by crystal voilet staining; format: functional, organism-based
[25] = test system: Staphylococcus epidermidis; assay: Antimicrobial activity against biofilm-positive Staphylococcus epidermidis clinical isolate ICS4 by microdilution method; format: functional, organism-based
[26] = test system: Staphylococcus epidermidis; assay: Antimicrobial activity against Staphylococcus epidermidis clinical isolate 5179-R1 derived from PNAG negative, icaA::IS257 mutant 5179 strain produces a proteinaceous biofilm dependent on a truncated 140-kDa isoform of Aap assessed as inhibition of biofilm formation after 16 hrs by crystal violet staining; format: functional, organism-based
Staphylococcus hominis = assay: Antimicrobial activity against Staphylococcus hominis F13532 assessed as inhibition of biofilm formation after 24 hrs by microdilution method; format: functional; conditions: F13532, 24 h
[27] = test system: Staphylococcus epidermidis; assay: Antimicrobial activity against Staphylococcus epidermidis 9142 expressing surface protein Aap assessed as inhibition of biofilm formation at 12.5 ug/ml by spectrophotometry in presence of EDTA; format: functional, organism-based
[28] = test system: Staphylococcus epidermidis; assay: Antimicrobial activity against Staphylococcus epidermidis 9142 expressing surface protein Aap by microdilution method in presence of 10 uM Zn ions; format: functional
[29] = test system: Staphylococcus haemolyticus; assay: Antimicrobial activity against Staphylococcus haemolyticus S33208 assessed as inhibition of biofilm formation after 24 hrs by crystal violet staining; format: functional, organism-based
[30] = test system: Staphylococcus epidermidis; assay: Antimicrobial activity against Staphylococcus epidermidis clinical isolate 5179-R1 derived from PNAG negative, icaA::IS257 mutant 5179 strain produces a proteinaceous biofilm dependent on a truncated 140-kDa isoform of Aap by microdilution method; format: functional, organism-based
[31] = test system: Staphylococcus epidermidis; assay: Antimicrobial activity against Staphylococcus epidermidis 9142 assessed as inhibition of bacterial attachment to plastics at 15 ug/ml under static condition for 3 hrs by microscopic analysis in presence of 10 uM Zn ions; format: functional, organism-based
[32] = test system: Staphylococcus epidermidis; assay: Antimicrobial activity against biofilm-positive Staphylococcus epidermidis clinical isolate ICS2 by microdilution method; format: functional, organism-based
[33] = test system: Staphylococcus epidermidis; assay: Antimicrobial activity against biofilm-positive Staphylococcus epidermidis clinical isolate ICS4 assessed as inhibition of biofilm formation after 16 hrs by crystal violet staining; format: functional, organism-based
[34] = test system: Staphylococcus epidermidis; assay: Antimicrobial activity against biofilm-positive Staphylococcus epidermidis clinical isolate ICS2 assessed as inhibition of biofilm formation after 16 hrs by crystal violet staining; format: functional, organism-based
[35] = test system: Staphylococcus epidermidis; assay: Antimicrobial activity against biofilm-positive Staphylococcus epidermidis clinical isolate ICS5 assessed as inhibition of biofilm formation after 16 hrs by crystal violet staining; format: functional, organism-based
[36] = test system: Staphylococcus epidermidis; assay: Antimicrobial activity against Staphylococcus epidermidis 9142 assessed as inhibition of bacterial attachment to plastics at 10 ug/ml under static condition for 3 hrs by microscopic analysis; format: functional, organism-based
[37] = test system: Staphylococcus epidermidis; assay: Antimicrobial activity against Staphylococcus epidermidis 9142 assessed as inhibition of bacterial primary attachment to plastics during 3 hrs at 15 ug/ml by microscopic analysis; format: functional, organism-based
[38] = test system: Staphylococcus epidermidis; assay: Antimicrobial activity against Staphylococcus epidermidis CAV1005 assessed as inhibition of biofilm formation after 24 hrs by microdilution method; format: functional; conditions: CAV1005, 24 h
[39] = test system: Staphylococcus epidermidis; assay: Antimicrobial activity against Staphylococcus epidermidis 9142 assessed as inhibition of bacterial primary attachment to plastics at 15 ug/ml under shaking condition for 3 hrs by microscopic analysis; format: functional, organism-based
[40] = test system: Staphylococcus epidermidis; assay: Antimicrobial activity against Staphylococcus epidermidis 9142 assessed as growth inhibition at 8 ug/ml by microdilution method; format: functional, organism-based
[41] = test system: Staphylococcus epidermidis; assay: Antimicrobial activity against Staphylococcus epidermidis 9142 under microaeration condition at 10 ug/ml by microdilution method; format: functional, organism-based
[42] = test system: Staphylococcus epidermidis; assay: Antimicrobial activity against Staphylococcus epidermidis 9142 assessed as inhibition of biofilm formation after 24 hrs by crystal violet staining; format: functional, organism-based
[43] = test system: Staphylococcus epidermidis; assay: Antimicrobial activity against Staphylococcus epidermidis 9142 expressing surface protein Aap assessed as inhibition of biofilm formation at 12.5 ug/ml by spectrophotometry in presence of Zn ions; format: functional, organism-based
[44] = test system: Staphylococcus epidermidis; assay: Antimicrobial activity against biofilm-positive Staphylococcus epidermidis clinical isolate ICS3 by microdilution method; format: functional, organism-based
[45] = test system: Staphylococcus epidermidis; assay: Antimicrobial activity against Staphylococcus epidermidis 9142 assessed as growth inhibition at 16 ug/ml by microdilution method; format: functional, organism-based
[46] = test system: Staphylococcus epidermidis; assay: Antimicrobial activity against Staphylococcus epidermidis 9142 expressing surface protein Aap up to 10 hrs by microdilution method in presence of 10 uM Zn ions; format: functional, organism-based
[47] = test system: Staphylococcus epidermidis; assay: Antimicrobial activity against Staphylococcus epidermidis 9142 expressing surface protein Aap assessed as inhibition of biofilm formation at 12.5 ug/ml by spectrophotometry in presence of magnesium ions; format: functional, organism-based
[48] = test system: Staphylococcus epidermidis; assay: Antimicrobial activity against Staphylococcus epidermidis 9142 assessed as inhibition of bacterial attachment to plastics at 15 ug/ml under static condition for 3 hrs by microscopic analysis; format: functional, organism-based
[49] = test system: Staphylococcus epidermidis; assay: Antimicrobial activity against Staphylococcus epidermidis 9142 expressing surface protein Aap assessed as inhibition of bacterial growth at 12.5 ug/ml after 16 hrs by spectrophotometry in presence of 10 uM Zn ions; format: functional, organism-based
[50] = test system: Staphylococcus epidermidis; assay: Antimicrobial activity against biofilm-positive Staphylococcus epidermidis clinical isolate ICS3 assessed as inhibition of biofilm formation after 16 hrs by crystal violet staining; format: functional, organism-based

For `O=C(Nc1ncc([N+](=O)[O-])s1)c1ccccc1O` [TIZOXANIDE], the MIC [1] was 8 µg/mL (≈ 30.2 µM), the Activity [2] was “Dose-dependent effect” and the Activity [3] was “Dose-dependent effect”. The MIC [4] was 8 µg/mL (≈ 30.2 µM), the fraction unbound [5] was 0.025 and the Activity [6] was “Dose-dependent effect”. The Activity [7] was “Active”, the Activity [8] was “Active” and the Activity [9] was “Active”. The Activity [10] was “Active” and the MIC [11] was 8 µg/mL (≈ 30.2 µM).

With `Cl.NCCOc1ccccc1C(=O)Nc1ncc([N+](=O)[O-])s1` the solubility [12] was 400 µg/mL.

For `CC(=O)Oc1ccccc1C(=O)Nc1ncc([N+](=O)[O-])s1` [NITAZOXANIDE], the MIC [1] was 8 µg/mL (≈ 26 µM), the Activity [2] was “Dose-dependent effect” and the Activity [13] was “Active”. The Activity [14] was “Active”, the Activity [15] was “Active” and the Activity [3] was “Dose-dependent effect”. For the same molecule, the Activity [16] was “Active”, the inhibition [17] was “Active” and the Activity [18] was “Active”. For the same molecule, the Activity [19] was “Active”, the Activity [20] was “Active” and the IC50 [21] was 1 µg/mL (≈ 3.25 µM). For the same molecule, the MIC [21] was 16 µg/mL (≈ 52.1 µM), the Activity [22] was “Dose-dependent effect” and the MIC [4] was 8 µg/mL (≈ 26 µM). The IC50 [23] was 1 µg/mL (≈ 3.25 µM), the MIC [23] was 16 µg/mL (≈ 52.1 µM) and the Activity [24] was “inactive”. The IC50 [25] was 1 µg/mL (≈ 3.25 µM), the MIC [25] was 16 µg/mL (≈ 52.1 µM) and the inhibition [26] was “Active”. The MIC (Staphylococcus hominis) was greater than 32 µg/mL, the Activity [27] was “inactive” and the MIC [28] was 16 µg/mL. For the same molecule, the Activity [29] was “Dose-dependent effect”, the IC50 [30] was 1 µg/mL (≈ 3.25 µM) and the MIC [30] was 16 µg/mL (≈ 52.1 µM). For the same molecule, the Activity [31] was “Active”, the IC50 [32] was 1 µg/mL (≈ 3.25 µM) and the MIC [32] was 16 µg/mL (≈ 52.1 µM). For the same molecule, the inhibition [33] was “Active”, the inhibition [34] was “Active” and the inhibition [35] was “Active”. For the same molecule, the Activity [36] was “Active”, the Activity [37] was “Active” and the MIC [38] was greater than 32 µg/mL. The Activity [39] was “Active”, the Activity [40] was “Active” and the Activity [41] was “Active”. For the same molecule, the Activity [42] was “Dose-dependent effect”, the Activity [6] was “Dose-dependent effect” and the Activity [43] was “inactive”. The Activity [7] was “Active”, the Activity [8] was “Active” and the IC50 [44] was 1 µg/mL (≈ 3.25 µM). The MIC [44] was 16 µg/mL (≈ 52.1 µM), the Activity [9] was “Active” and the Activity [45] was “Active”. For the same molecule, the Activity [10] was “Active”, the MIC [11] was 8 µg/mL (≈ 26 µM) and the Activity [46] was “Active”. The Activity [47] was “Active”, the Activity [48] was “Active” and the Activity [49] was “inactive”. For the same molecule, the inhibition [50] was “Active”.
